Laboratory results taken from PMC4506051, “Pharmacokinetic Profiles of Active Ingredients and Its Metabolites Derived from Rikkunshito, a Ghrelin Enhancer, in Healthy Japanese Volunteers: A Cross-Over, Randomized Study” (PLoS ONE, 2015).
Each block holds one compound with its values, some of them ahead of it.

What was measured:
[1] = Exploratory trial: plasma concentration of rikkunshito ingredients after single oral rikkunshito 7.5 g; format: in vivo
Method in brief: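 Plasma and urine levels were measured by LC–MS/MS after one 7.5 g oral dose of rikkunshito. Samples were collected before dosing and at 0.5–8 h for blood, or in 0–4 h and 4–8 h fractions for urine. Synephrine was determined after protein-removal plate cleanup; the other ingredients after β-glucuronidase deconjugation (2 h, 37°C) and SPE.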

[2] = protocol rationale for final sampling time; cited from earlier work
[3] = Method validation: stability in blood
[4] = Method validation: long-term stability in plasma
[5] = Method validation: short-term stability in plasma
[6] = Method validation: post-preparative stability (autosampler)
[7] = Method validation: stability in standard, stock and working solution
[8] = Dose proportionality (linearity) test by power model for C max and AUC0-last; details: rikkunshito 2.5, 5.0 or 7.5 g
Procedure: The dose proportionality was analyzed via a power model [21, 22]. […] Evaluation of linearity of the dosage-exposure relationship was conducted with Phoenix WinNonlin and SAS 9.2 (SAS Institute, Inc., Cary, NC).

[9] = Method validation: freeze-thaw stability in plasma; details: deep freezer (−30°C to −10°C), after 3 cycles of freeze-thaw

Cmax ([1]; human, in vivo): 58.2 ng/mL
Stability in blood, RR ([3]; 1600 pg/mL, at room temperature for 2 h): 104.2%
Stability in blood, RR ([3]; 1600 pg/mL, on ice for 2 h): 108.8%
Stability in blood, RR ([3]; 64000 pg/mL, at room temperature for 2 h): 98.2%
Stability in blood, RR ([3]; 64000 pg/mL, on ice for 2 h): 99.1%
Long-term stability, RR ([4]; 1600 pg/mL, freezer (−30°C to −10°C) for 13 days): 102.6%
Long-term stability, RR ([4]; 1600 pg/mL, freezer (−30°C to −10°C) for 39 days): 108.3%
Long-term stability, RR ([4]; 1600 pg/mL, freezer (−30°C to −10°C) for 228 days): 113.5%
Long-term stability, RR ([4]; 64000 pg/mL, freezer (−30°C to −10°C) for 13 days): 113.1%
Long-term stability, RR ([4]; 64000 pg/mL, freezer (−30°C to −10°C) for 39 days): 104.4%
Long-term stability, RR ([4]; 64000 pg/mL, freezer (−30°C to −10°C) for 228 days): 109.2%
Short-term stability, RR ([5]; 1600 pg/mL, at room temperature for 4 h): 89.0%
Short-term stability, RR ([5]; 1600 pg/mL, at room temperature for 25 h): 90.2%
Short-term stability, RR ([5]; 64000 pg/mL, at room temperature for 4 h): 98.9%
Short-term stability, RR ([5]; 64000 pg/mL, at room temperature for 25 h): 105.0%
Post-preparative stability, RR ([6]; 1600 pg/mL, autosampler set at 4°C for 24 h): 106.0%
Post-preparative stability, RR ([6]; 1600 pg/mL, autosampler set at 4°C for 48 h): 110.8%
Post-preparative stability, RR ([6]; 64000 pg/mL, autosampler set at 4°C for 24 h): 104.9%
Post-preparative stability, RR ([6]; 64000 pg/mL, autosampler set at 4°C for 48 h): 111.4%
Working solution stability, RR ([7]; 8 ng/mL, refrigerator (1°C to 8°C) for 53 days): 108.4%
Working solution stability, RR ([7]; 800 ng/mL, refrigerator (1°C to 8°C) for 53 days): 100.7%
Stock solution stability, RR ([7]; 0.8 mg/mL, refrigerator (1°C to 8°C) for 54 days): 54 days: 100.0%
Stock solution stability, RR ([7]; 0.8 mg/mL, refrigerator (1°C to 8°C) for 129 days): 129 days: 100.0%
Dose proportionality test using power model, β ([8]; AUC0-last): 0.979
Dose proportionality test using power model, β ([8]; Cmax): 0.819
SMILES: CC1(C)[C@@H](O)CC[C@]2(C)[C@H]3C(=O)C=C4[C@@H]5C[C@@](C)(C(=O)O)CC[C@]5(C)CC[C@@]4(C)[C@]3(C)CC[C@@H]12 [18β-Glycyrrhetinic acid]
half-life [2]: approximately 10 h

SMILES: O=C(/C=C/c1ccc(O)cc1)c1ccc(O)cc1O [Isoliquiritigenin]
Plasma concentration, 0 h ([1]; 0 h (preadministration), single oral rikkunshito 7.5 g, mean ± S.D., n = 4): BQL
Plasma concentration, 1 h ([1]; 1 h after single oral rikkunshito 7.5 g, mean ± S.D., n = 4): BQL
Plasma concentration, 4 h ([1]; 4 h after single oral rikkunshito 7.5 g, mean ± S.D., n = 4): BQL
Plasma concentration, 8 h ([1]; 8 h after single oral rikkunshito 7.5 g, mean ± S.D., n = 4): BQL
concentration at 0.5 h ([1]; human, in vivo, po): 0.0153 ng/mL
concentration at 2 h ([1]; human, in vivo, po): 0.0171 ± 0.0343 ng/mL
Plasma concentration, 0.5 h ([1]; human, in vivo, po, 0.5 h): 0.0153 ± 0.018 ng/mL
Stability in blood, RR ([3]; 4 pg/mL, at room temperature for 2 h): 81.0%
Stability in blood, RR ([3]; 4 pg/mL, on ice for 2 h): 103.0%
Stability in blood, RR ([3]; 160 pg/mL, at room temperature for 2 h): 46.8%
Stability in blood, RR ([3]; 160 pg/mL, on ice for 2 h): 90.2%
Long-term stability, RR ([4]; 4 pg/mL, freezer (−30°C to −10°C) for 22 days): 99.0%
Long-term stability, RR ([4]; 4 pg/mL, freezer (−30°C to −10°C) for 31 days): 105.0%
Long-term stability, RR ([4]; 4 pg/mL, freezer (−30°C to −10°C) for 220 days): 102.8%
Long-term stability, RR ([4]; 160 pg/mL, freezer (−30°C to −10°C) for 22 days): 95.0%
Long-term stability, RR ([4]; 160 pg/mL, freezer (−30°C to −10°C) for 31 days): 87.7%
Long-term stability, RR ([4]; 160 pg/mL, freezer (−30°C to −10°C) for 220 days): 85.5%
Short-term stability, RR ([5]; 4 pg/mL, at room temperature for 4 h): 97.0%
Short-term stability, RR ([5]; 4 pg/mL, at room temperature for 24 h): 96.5%
Short-term stability, RR ([5]; 160 pg/mL, at room temperature for 4 h): 85.2%
Short-term stability, RR ([5]; 160 pg/mL, at room temperature for 24 h): 101.2%
Freeze-thaw stability, RR ([9]; 4 pg/mL): 95.3%
Freeze-thaw stability, RR ([9]; 160 pg/mL): 88.3%
Post-preparative stability, RR ([6]; 4 pg/mL, autosampler set at 4°C for 25 h): 110.0%
Post-preparative stability, RR ([6]; 4 pg/mL, autosampler set at 4°C for 48 h): 88.0%
Post-preparative stability, RR ([6]; 160 pg/mL, autosampler set at 4°C for 25 h): 115.2%
Post-preparative stability, RR ([6]; 160 pg/mL, autosampler set at 4°C for 48 h): 93.8%
Working solution stability, RR ([7]; 0.02 ng/mL, refrigerator (1°C to 8°C) for 53 days): 89.9%
Working solution stability, RR ([7]; 0.02 ng/mL, refrigerator (1°C to 8°C) for 128 days): 108.2%
Working solution stability, RR ([7]; 2 ng/mL, refrigerator (1°C to 8°C) for 53 days): 92.7%
Working solution stability, RR ([7]; 2 ng/mL, refrigerator (1°C to 8°C) for 128 days): 102.2%
Stock solution stability, RR ([7]; 0.1 mg/mL, refrigerator (1°C to 8°C) for 54 days): 54 days: 96.9%
Stock solution stability, RR ([7]; 0.1 mg/mL, refrigerator (1°C to 8°C) for 129 days): 129 days: 96.9%
Dose proportionality test using power model, β ([8]; AUC0-last): 1.27
Dose proportionality test using power model, β ([8]; Cmax): 0.692
